Experimental findings from patent US20230184749A1, “DRUG RANKING METHOD AND SYSTEM, COMPARISON METHOD FOR DRUG RANKING METHOD AND NEW USE OF DRUG SELECTED USING THE SAME” (National Tsing Hua University, priority 2021, published 2023) are described below.

The assay has as its system SARS-CoV-2. The assay is described as follows: Plaque assay, anti-SARS-CoV-2 activity in Vero E6 cells. The assay is classed as cell-based, SARS-CoV-2 (hCoV-19/Taiwan/NTU13/2020). Conditions: for average percentage of suppression of SARS-CoV-2 replication / plaque reduction compared to the negative control groups (FIG. 13): Vero E6 cells; for average percentage of suppression of SARS-CoV-2 replication: 5 days of incubation; for EC50: Severe acute respiratory syndrome coronavirus 2, Vero C1008, read-out: EC50 (minimal concentration required to reduce 50% of plaque count); for plaque reduction compared to the negative control groups (FIG. 13): at least 10 μM.

Like-named read-outs stand apart in the source and are kept apart here.

For the compound `CC(Cc1ccc(O)cc1)NCC(O)c1cc(O)cc(O)c1` (stereo not shown) [Fenoterol, 5-[1-hydroxy-2-[1-(4-hydroxyphenyl)propan-2-ylamino]ethyl]benzene-1,3-diol], the EC50 was 30 µM and the “plaque reduction compared to the negative control groups (FIG. 13)” value is on record as “effective in suppressing SARS-CoV-2 replication”. Besides, the “average percentage of suppression of SARS-CoV-2 replication” value (“average percentage” for short) (10 μM) turned out to be 17.0%. For the same compound, the “average percentage” value (40 μM) came to 68.9%.

Regarding `CCCCCN=C(N)N/N=C/c1c[nH]c2ccc(OC)cc12` [Tegaserod, 1-[(E)-(5-methoxy-1H-indol-3-yl)methylideneamino]-2-pentylguanidine], the “plaque reduction compared to the negative control groups (FIG. 13)” value is listed as “effective in suppression SARS-CoV-2 replication”. Also, the “average percentage” value (10 μM) was determined as 54.3%. Besides, the EC50 (SARS-CoV-2 infected Vero E6 cells, regression analysis of dose-response curves) is below 10 µM.
